Laboratory results taken from patent US20240343704A1, “HALO-SUBSTITUTED AMINO PYRIDINE COMPOUNDS AS INHIBITORS OF THE HAEMATOPOIETIC PROGENITOR KINASE 1 (HPK1)” (priority 2021, published 2024).
Structures can show the parent of a compound that is named as a salt.

Key:
[1] = molecular target: T1, Recombinant (1-346) HPK1 (h) (Homo sapiens, UniProt Q92918); test: HPK1 Human STE Kinase Enzymatic Radiometric Assay; assay type: biochemical; details: read-out: HPK1 IC50 nM Range*
T1 construct: Recombinant (1-346) HPK1 (h) is incubated with 8 mM MOPS pH 7.0
T1 sequence (Q92918 1-346): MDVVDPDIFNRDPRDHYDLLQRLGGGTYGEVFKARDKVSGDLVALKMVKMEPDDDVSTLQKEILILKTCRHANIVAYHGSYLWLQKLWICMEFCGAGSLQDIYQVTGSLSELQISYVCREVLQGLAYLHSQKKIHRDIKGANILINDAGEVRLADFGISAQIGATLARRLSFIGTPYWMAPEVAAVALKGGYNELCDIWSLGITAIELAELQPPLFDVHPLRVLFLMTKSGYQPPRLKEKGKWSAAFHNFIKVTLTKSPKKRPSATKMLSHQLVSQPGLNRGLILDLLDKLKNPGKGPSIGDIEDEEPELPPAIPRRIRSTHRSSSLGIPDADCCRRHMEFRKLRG
Method: A stock solution of 10 mM of test compound is prepared in DMSO. The compound plate was prepared by 3-fold and 9-point serial dilutions. […] The reaction is initiated by The addition of the Mg/ATP mix. After incubation for 40 minutes at RT, the reaction is stopped by the addition of phosphoric acid to a concentration of 0.5%.

[2] = molecular target: Lck (h) (Homo sapiens, UniProt P06239); test: Lck Human  Kinase Enzymatic Radiometric Assay; assay type: biochemical; details: read-out: Lck IC50 nM Range*
Sequence of Lck (h) (P06239 whole entry): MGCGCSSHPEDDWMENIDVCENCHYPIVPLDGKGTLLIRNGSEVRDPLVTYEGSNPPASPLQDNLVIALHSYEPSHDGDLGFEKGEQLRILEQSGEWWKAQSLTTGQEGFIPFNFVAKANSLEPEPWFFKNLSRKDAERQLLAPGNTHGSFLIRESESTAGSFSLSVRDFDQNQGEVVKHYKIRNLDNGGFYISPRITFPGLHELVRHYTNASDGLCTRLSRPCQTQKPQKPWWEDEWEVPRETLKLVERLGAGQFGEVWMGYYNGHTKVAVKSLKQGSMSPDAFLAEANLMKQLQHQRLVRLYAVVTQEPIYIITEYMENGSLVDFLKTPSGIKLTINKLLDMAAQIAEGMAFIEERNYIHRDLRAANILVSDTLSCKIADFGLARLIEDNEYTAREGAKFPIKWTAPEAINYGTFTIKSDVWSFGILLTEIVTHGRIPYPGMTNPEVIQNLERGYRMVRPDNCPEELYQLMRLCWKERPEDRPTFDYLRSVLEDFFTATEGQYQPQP
Procedure, shortened: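 Substrate 33P-incorporation measured by scintillation counting after spotting on P30 filtermat and phosphoric acid washes. Human Lck reacted 40 min at RT in 50 mM Tris pH 7.5 with 10 mM MgAcetate, [gamma-33P]-ATP, 250 uM Cdc2 peptide, 0.1 mM EGTA and 0.1 mM Na3VO4.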

CN(C)CC1Cc2cc(-c3cc(-c4ccc(Cl)cc4)c(F)nc3N)ccc2C(=O)N1 (centres unmarked) [I-312, 6-(2-amino-5-(4-chlorophenyl)-6-fluoropyridin-3-yl)-3-((dimethylamino)methyl)-3,4-dihydroisoquinolin-1(2H)-one]
IC50 [1]: 101 to 1000 nM
IC50 [2]: > 1000 nM

Cc1cc(-c2cc(-c3cc4c(cc3F)C(=O)NCC4)c(N)nc2F)ccn1 [I-313, 6-(6-amino-2-fluoro-2′-methyl-[3,4′-bipyridin]-5-yl)-7-fluoro-3,4-dihydroisoquinolin-1(2H)-one]
IC50 [1]: 11 to 100 nM
IC50 [2]: > 1000 nM

Nc1nc(F)c(-c2ccnc(OCC3CC3)c2)cc1-c1cc2c(cc1F)C(=O)NCC2 [I-314, 6-(6-amino-2′-(cyclopropylmethoxy)-2-fluoro-[3,4′-bipyridin]-5-yl)-7-fluoro-3,4-dihydroisoquinolin-1(2H)-one]
IC50 [1]: 101 to 1000 nM
IC50 [2]: > 1000 nM

Nc1nc(F)c(-c2cccc(OCC3CC3)c2)cc1-c1cc2c(cc1F)C(=O)NCC2 [I-315, 6-(2-amino-5-(3-(cyclopropylmethoxy)phenyl)-6-fluoropyridin-3-yl)-7-fluoro-3,4-dihydroisoquinolin-1(2H)-one]
IC50 [1]: 101 to 1000 nM
IC50 [2]: > 1000 nM

Nc1nc(F)c(-c2ccc(OCC3CC3)cc2)cc1-c1cc2c(cc1F)C(=O)NCC2 [I-316, 6-(2-amino-5-(4-(cyclopropylmethoxy)phenyl)-6-fluoropyridin-3-yl)-7-fluoro-3,4-dihydroisoquinolin-1(2H)-one]
IC50 [1]: 11 to 100 nM
IC50 [2]: > 1000 nM

Nc1nc(F)c(-c2ccc(OC3CN(C(=O)CC4CC4)C3)cc2)cc1-c1ccc2c(c1)CCNC2=O [I-317, 6-(2-amino-5-(4-((1-(2-cyclopropylacetyl)azetidin-3-yl)oxy)phenyl)-6-fluoropyridin-3-yl)-3,4-dihydroisoquinolin-1(2H)-one]
IC50 [1]: 0.1 to 10 nM
IC50 [2]: > 1000 nM

Nc1nc(F)c(-c2ccc(OC3CN(C4COC4)C3)cc2)cc1-c1ccc2c(c1)CCNC2=O [I-318, 6-(2-amino-6-fluoro-5-(4-((1-(oxetan-3-yl)azetidin-3-yl)oxy)phenyl)pyridin-3-yl)-3,4-dihydroisoquinolin-1(2H)-one]
IC50 [1]: 11 to 100 nM
IC50 [2]: > 1000 nM

C[C@@H]1CN(c2ccc(-c3cc(-c4ccc5c(c4)CCNC5=O)c(N)nc3F)cc2)C[C@H](C)N1 [I-319, 6-(2-amino-5-(4-((3R,5S)-3,5-dimethylpiperazin-1-yl)phenyl)-6-fluoropyridin-3-yl)-3,4-dihydroisoquinolin-1(2H)-one]
IC50 [1]: 0.1 to 10 nM
IC50 [2]: > 1000 nM

Nc1nc(F)c(-c2ccc([C@]34C[C@H]3CN(CC3CC3)C4)cc2)cc1-c1cc(F)c2c(c1)CCNC2=O [I-320, 6-(2-amino-5-(4-((1S,5R)-3-(cyclopropylmethyl)-3-azabicyclo[3.1.0]hexan-1-yl)phenyl)-6-fluoropyridin-3-yl)-8-fluoro-3,4-dihydroisoquinolin-1(2H)-one formate]
IC50 [1]: 0.1 to 10 nM
IC50 [2]: 101 to 1000 nM

Nc1nc(F)c(-c2ccc(OC3CN(CC4CC4)C3)cc2)cc1-c1ccc2c(c1)CCNC2=O [I-321, 6-(2-amino-5-(4-((1-(cyclopropylmethyl)azetidin-3-yl)oxy)phenyl)-6-fluoropyridin-3-yl)-3,4-dihydroisoquinolin-1(2H)-one]
IC50 [1]: 0.1 to 10 nM
IC50 [2]: > 1000 nM

Nc1nc(F)c(-c2ccc(OC3CCN(CC4CC4)CC3)cc2)cc1-c1ccc2c(c1)CCNC2=O [I-322, 6-(2-amino-5-(4-((1-(cyclopropylmethyl)piperidin-4-yl)oxy)phenyl)-6-fluoropyridin-3-yl)-3,4-dihydroisoquinolin-1(2H)-one]
IC50 [1]: 0.1 to 10 nM
IC50 [2]: > 1000 nM

Nc1nc(F)c(-c2ccc(OC3CCN(C(=O)CC4CC4)CC3)cc2)cc1-c1cc2c(cc1F)C(=O)NCC2 [I-323, 6-(2-amino-5-(4-((1-(2-cyclopropylacetyl)piperidin-4-yl)oxy)phenyl)-6-fluoropyridin-3-yl)-7-fluoro-3,4-dihydroisoquinolin-1(2H)-one]
IC50 [1]: 0.1 to 10 nM
IC50 [2]: > 1000 nM

Nc1nc(F)c(-c2ccc(OC3CCN(CC4CC4)CC3)cc2)cc1-c1cc2c(cc1F)C(=O)NCC2 [I-324, 6-(2-amino-5-(4-((1-(cyclopropylmethyl)piperidin-4-yl)oxy)phenyl)-6-fluoropyridin-3-yl)-7-fluoro-3,4-dihydroisoquinolin-1(2H)-one]
IC50 [1]: 0.1 to 10 nM
IC50 [2]: > 1000 nM

Nc1nc(F)c(-c2ccc(OC3CCN(C4COC4)CC3)cc2)cc1-c1cc2c(cc1F)C(=O)NCC2 [I-325, 6-(2-amino-6-fluoro-5-(4-((1-(oxetan-3-yl)piperidin-4-yl)oxy)phenyl)pyridin-3-yl)-7-fluoro-3,4-dihydroisoquinolin-1(2H)-one]
IC50 [1]: 11 to 100 nM
IC50 [2]: > 1000 nM

CC(=O)N1CC(Oc2ccc(-c3cc(-c4ccc5c(c4)CCNC5=O)c(N)nc3F)cc2)C1 [I-326, 6-(5-(4-((1-acetylazetidin-3-yl)oxy)phenyl)-2-amino-6-fluoropyridin-3-yl)-3,4-dihydroisoquinolin-1(2H)-one]
IC50 [1]: 0.1 to 10 nM
IC50 [2]: > 1000 nM

CC(=O)N1CCC(Oc2ccc(-c3cc(-c4cc5c(cc4F)C(=O)NCC5)c(N)nc3F)cc2)CC1 [I-327, 6-(5-(4-((1-acetylpiperidin-4-yl)oxy)phenyl)-2-amino-6-fluoropyridin-3-yl)-7-fluoro-3,4-dihydroisoquinolin-1(2H)-one]
IC50 [1]: 0.1 to 10 nM
IC50 [2]: > 1000 nM

CC(C)N1CCc2cc(-c3cc(-c4ccc5c(c4)CCNC5=O)c(N)nc3F)ccc2C1 [I-328, 6-(2-amino-6-fluoro-5-(2-isopropyl-1,2,3,4-tetrahydroisoquinolin-6-yl)pyridin-3-yl)-3,4-dihydroisoquinolin-1(2H)-one]
IC50 [1]: 11 to 100 nM
IC50 [2]: > 1000 nM

COCCN1CCN(Cc2cccc(-c3cc(-c4ccc5c(c4)CCNC5=O)c(N)nc3F)c2)CC1 [I-329, 6-(2-amino-6-fluoro-5-(3-((4-(2-methoxyethyl)piperazin-1-yl)methyl)phenyl)pyridin-3-yl)-3,4-dihydroisoquinolin-1(2H)-one]
IC50 [1]: 101 to 1000 nM
IC50 [2]: > 1000 nM

CC(C)N1CCN(Cc2cccc(-c3cc(-c4ccc5c(c4)CCNC5=O)c(N)nc3F)c2)CC1 [I-330, 6-(2-amino-6-fluoro-5-(3-((4-isopropylpiperazin-1-yl)methyl)phenyl)pyridin-3-yl)-3,4-dihydroisoquinolin-1(2H)-one]
IC50 [1]: 11 to 100 nM
IC50 [2]: > 1000 nM

CN1CCN(C(=O)c2cccc(-c3cc(-c4ccc5c(c4)CCNC5=O)c(N)nc3F)c2)CC1 [I-331, 6-(2-amino-6-fluoro-5-(3-(4-methylpiperazine-1-carbonyl)phenyl)pyridin-3-yl)-3,4-dihydroisoquinolin-1(2H)-one]
IC50 [1]: 101 to 1000 nM
IC50 [2]: > 1000 nM

CN1CCN(c2ccc(-c3cc(-c4ccc5c(c4)CCNC5=O)c(N)nc3F)cc2N)CC1 [I-332, 6-(2-amino-5-(3-amino-4-(4-methylpiperazin-1-yl)phenyl)-6-fluoropyridin-3-yl)-3,4-dihydroisoquinolin-1(2H)-one]
IC50 [1]: 0.1 to 10 nM
IC50 [2]: > 1000 nM

Nc1nc(F)c(-c2ccc3c(c2)CCNC3=O)cc1-c1ccc2c(c1)CCNC2=O [I-333, 6,6′-(2-amino-6-fluoropyridine-3,5-diyl)bis(3,4-dihydroisoquinolin-1(2H)-one)]
IC50 [1]: 0.1 to 10 nM
IC50 [2]: > 1000 nM
